Laboratory results published in PubChem BioAssay AID2060884 (Molecular Pharmacology Branch, DTP, NCI, 2025).

Test system: NCI-H929 complex spheroids, viability % test/control
Experiment: Anticancer human tumor NCI-H929 cell line growth inhibition [RAS];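 note: compound exposure lasted seven days before viability was read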;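 for viability, T/C: 100% = DMSO vehicle control viability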
Settings: for IC50: curve of first compound; for viability, T/C: stronger effect = lower value; active = viability on the fitted dose curve at most 10% of control; inactive = the rest
In short: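 Agents were tested in combination matrices in half-log decrements from a top concentration at or near clinical Cmax (10 microM if undetermined). Targets were multi-cell spheroids of tumour lines plus HUVEC and MSC stromal cells.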

[1] = second compound 0.00316 µM, first compound 0.0316 µM
[2] = second compound 0.00316 µM, first compound 0.1 µM
[3] = second compound 0.00316 µM, first compound 0.316 µM
[4] = second compound 0.00316 µM, first compound 1 µM
[5] = second compound 0.01 µM, first compound 0.0316 µM
[6] = second compound 0.01 µM, first compound 0.1 µM
[7] = second compound 0.01 µM, first compound 0.316 µM
[8] = second compound 0.01 µM, first compound 1 µM
[9] = second compound 0.0316 µM, first compound 0.0316 µM
[10] = second compound 0.0316 µM, first compound 0.1 µM
[11] = second compound 0.0316 µM, first compound 0.316 µM
[12] = second compound 0.0316 µM, first compound 1 µM
[13] = second compound 0.1 µM, first compound 0.0316 µM
[14] = second compound 0.1 µM, first compound 0.1 µM
[15] = second compound 0.1 µM, first compound 0.316 µM
[16] = second compound 0.1 µM, first compound 1 µM
[17] = second compound 0.316 µM, first compound 0.0316 µM
[18] = second compound 0.316 µM, first compound 0.1 µM
[19] = second compound 0.316 µM, first compound 0.316 µM
[20] = second compound 0.316 µM, first compound 1 µM
[21] = second compound 1 µM, first compound 0.0316 µM
[22] = second compound 1 µM, first compound 0.1 µM
[23] = second compound 1 µM, first compound 0.316 µM
[24] = second compound 1 µM, first compound 1 µM

Nc1ccn(C2OC(CO)C(O)C2(F)F)c(=O)n1 (stereo unspecified) + C=CC(=O)N1CCN(c2nc(OCC3CCCN3C)nc3c(F)c(-c4nc(N)cc(C)c4C(F)(F)F)c(Cl)cc23)C(C)C1
18.9 nM: IC50 (second compound 1 µM)
18.4 nM: IC50 (second compound 0.00316 µM) | IC50 (second compound 0.01 µM) | IC50 (second compound 0.0316 µM)
inactive: viability, T/C (second compound 0.00316 µM, first compound 0.00316 µM) 102% | viability, T/C (second compound 0.00316 µM, first compound 0.01 µM) 106% | viability, T/C (second compound 0.01 µM, first compound 0.00316 µM) 97.8% | viability, T/C (second compound 0.01 µM, first compound 0.01 µM) 111% | viability, T/C (second compound 0.0316 µM, first compound 0.00316 µM) 94.8% | viability, T/C (second compound 0.0316 µM, first compound 0.01 µM) 114% | viability, T/C (second compound 0.1 µM, first compound 0.00316 µM) 99.3% | viability, T/C (second compound 0.1 µM, first compound 0.01 µM) 97.3% | viability, T/C (second compound 0.316 µM, first compound 0.00316 µM) 101% | viability, T/C (second compound 0.316 µM, first compound 0.01 µM) 114% | viability, T/C (second compound 1 µM, first compound 0.00316 µM) 103% | viability, T/C (second compound 1 µM, first compound 0.01 µM) 118%
17.7 nM: IC50 (second compound 0.1 µM)
active: viability, T/C [1] 1.52% | viability, T/C [2] 2.24% | viability, T/C [3] 1.73% | viability, T/C [4] 0.82% | viability, T/C [5] 1.3% | viability, T/C [6] 2.1% | viability, T/C [7] 1.62% | viability, T/C [8] 0.86% | viability, T/C [9] 1.48% | viability, T/C [10] 1.95% | viability, T/C [11] 1.12% | viability, T/C [12] 0.76% | viability, T/C [13] 1.86% | viability, T/C [14] 2.03% | viability, T/C [15] 1.73% | viability, T/C [16] 1% | viability, T/C [17] 1.08% | viability, T/C [18] 1.62% | viability, T/C [19] 1.46% | viability, T/C [20] 0.81% | viability, T/C [21] 1.88% | viability, T/C [22] 2.07% | viability, T/C [23] 0.99% | viability, T/C [24] 0.9%
18.6 nM: IC50 (second compound 0.316 µM)

CC1(C)CCC(Nc2ncc(C(F)(F)F)c(-c3c[nH]c4c(P(C)(C)=O)c(C#N)ccc34)n2)CN1 (stereo unspecified) + CCn1c(-c2cccnc2C(C)OC)c2c3cc(ccc31)N1CCOC(CC(NC(=O)C(C(C)C)N(C)C(=O)C3(F)CCN(C(=O)C#CC(C)(C)N(C)C)CC3)C(=O)N3CCCC(N3)C(=O)OCC(C)(C)C2)C1
1.84 nM: IC50 (second compound 0.003 µM)
1.67 nM: IC50 (second compound 0.0949 µM)
1.96 nM: IC50 (second compound 0.000949 µM)
1.83 nM: IC50 (second compound 0.00949 µM)
1.79 nM: IC50 (second compound 0.03 µM)
1.46 nM: IC50 (second compound 0.3 µM)
active: viability, T/C (second compound 0.000949 µM, first compound 0.00949 µM) 4.36% | viability, T/C (second compound 0.000949 µM, first compound 0.03 µM) 3.1% | viability, T/C (second compound 0.000949 µM, first compound 0.0949 µM) 2.69% | viability, T/C (second compound 0.000949 µM, first compound 0.3 µM) 2.22% | viability, T/C (second compound 0.003 µM, first compound 0.00949 µM) 4.24% | viability, T/C (second compound 0.003 µM, first compound 0.03 µM) 3.6% | viability, T/C (second compound 0.003 µM, first compound 0.0949 µM) 2.6% | viability, T/C (second compound 0.003 µM, first compound 0.3 µM) 2.53% | viability, T/C (second compound 0.00949 µM, first compound 0.00949 µM) 4.24% | viability, T/C (second compound 0.00949 µM, first compound 0.03 µM) 2.85% | viability, T/C (second compound 0.00949 µM, first compound 0.0949 µM) 2.94% | viability, T/C (second compound 0.00949 µM, first compound 0.3 µM) 2.08% | viability, T/C (second compound 0.03 µM, first compound 0.00949 µM) 3.38% | viability, T/C (second compound 0.03 µM, first compound 0.03 µM) 2.65% | viability, T/C (second compound 0.03 µM, first compound 0.0949 µM) 2.58% | viability, T/C (second compound 0.03 µM, first compound 0.3 µM) 1.92% | viability, T/C (second compound 0.0949 µM, first compound 0.003 µM) 9.6% | viability, T/C (second compound 0.0949 µM, first compound 0.00949 µM) 2.64% | viability, T/C (second compound 0.0949 µM, first compound 0.03 µM) 2.41% | viability, T/C (second compound 0.0949 µM, first compound 0.0949 µM) 2.02% | viability, T/C (second compound 0.0949 µM, first compound 0.3 µM) 1.77% | viability, T/C (second compound 0.3 µM, first compound 0.003 µM) 5.86% | viability, T/C (second compound 0.3 µM, first compound 0.00949 µM) 2.85% | viability, T/C (second compound 0.3 µM, first compound 0.03 µM) 2.43% | viability, T/C (second compound 0.3 µM, first compound 0.0949 µM) 1.88% | viability, T/C (second compound 0.3 µM, first compound 0.3 µM) 1.61%
inactive: viability, T/C (second compound 0.000949 µM, first compound 0.000949 µM) 101% | viability, T/C (second compound 0.000949 µM, first compound 0.003 µM) 20.1% | viability, T/C (second compound 0.003 µM, first compound 0.000949 µM) 94.2% | viability, T/C (second compound 0.003 µM, first compound 0.003 µM) 17.3% | viability, T/C (second compound 0.00949 µM, first compound 0.000949 µM) 93.6% | viability, T/C (second compound 0.00949 µM, first compound 0.003 µM) 17% | viability, T/C (second compound 0.03 µM, first compound 0.000949 µM) 96.1% | viability, T/C (second compound 0.03 µM, first compound 0.003 µM) 12.4% | viability, T/C (second compound 0.0949 µM, first compound 0.000949 µM) 88.9% | viability, T/C (second compound 0.3 µM, first compound 0.000949 µM) 76.2%

C[C@@H](NC(=O)c1ncnc(N)c1Cl)c1ncc(C(=O)Nc2cc(C(F)(F)F)c(Cl)cn2)s1 + C=CC(=O)N1CCN(c2nc(OCC3CCCN3C)nc3c(F)c(-c4nc(N)cc(C)c4C(F)(F)F)c(Cl)cc23)C(C)C1
inactive: viability, T/C [1] 106% | viability, T/C [2] 95.9% | viability, T/C [3] 101% | viability, T/C [4] 97.9% | viability, T/C (second compound 0.00316 µM, first compound 3.16 µM) 101% | viability, T/C (second compound 0.00316 µM, first compound 10 µM) 115% | viability, T/C [5] 91.8% | viability, T/C [6] 101% | viability, T/C [7] 92.3% | viability, T/C [8] 83.8% | viability, T/C (second compound 0.01 µM, first compound 3.16 µM) 91.2% | viability, T/C (second compound 0.01 µM, first compound 10 µM) 116% | viability, T/C [9] 95% | viability, T/C [10] 94.1% | viability, T/C [11] 93% | viability, T/C [12] 87.8% | viability, T/C (second compound 0.0316 µM, first compound 3.16 µM) 100% | viability, T/C (second compound 0.0316 µM, first compound 10 µM) 115% | viability, T/C [13] 85.9% | viability, T/C [14] 95.2% | viability, T/C [15] 104% | viability, T/C [16] 97.7% | viability, T/C (second compound 0.1 µM, first compound 3.16 µM) 103% | viability, T/C (second compound 0.1 µM, first compound 10 µM) 114% | viability, T/C [17] 99.6% | viability, T/C [18] 102% | viability, T/C [19] 102% | viability, T/C [20] 95% | viability, T/C (second compound 0.316 µM, first compound 3.16 µM) 97.3% | viability, T/C (second compound 0.316 µM, first compound 10 µM) 117% | viability, T/C [21] 110% | viability, T/C [22] 101% | viability, T/C [23] 103% | viability, T/C [24] 108% | viability, T/C (second compound 1 µM, first compound 3.16 µM) 103% | viability, T/C (second compound 1 µM, first compound 10 µM) 111%
> 10000 nM: IC50 (second compound 0.00316 µM) | IC50 (second compound 0.01 µM) | IC50 (second compound 0.0316 µM) | IC50 (second compound 0.1 µM) | IC50 (second compound 0.316 µM) | IC50 (second compound 1 µM)
